Here are results for eleven molecules from BindingDB's records for doi:10.1111/cbdd.12708 (North-West University, 2016).

In general, IC50 refers to the midpoint of a concentration-inhibition curve. Lower therefore signals higher potency.

For experiment [1], the target named is T1, Amine oxidase [flavin-containing] A (Homo sapiens, UniProt P21397).
T1 sequence (P21397 whole entry): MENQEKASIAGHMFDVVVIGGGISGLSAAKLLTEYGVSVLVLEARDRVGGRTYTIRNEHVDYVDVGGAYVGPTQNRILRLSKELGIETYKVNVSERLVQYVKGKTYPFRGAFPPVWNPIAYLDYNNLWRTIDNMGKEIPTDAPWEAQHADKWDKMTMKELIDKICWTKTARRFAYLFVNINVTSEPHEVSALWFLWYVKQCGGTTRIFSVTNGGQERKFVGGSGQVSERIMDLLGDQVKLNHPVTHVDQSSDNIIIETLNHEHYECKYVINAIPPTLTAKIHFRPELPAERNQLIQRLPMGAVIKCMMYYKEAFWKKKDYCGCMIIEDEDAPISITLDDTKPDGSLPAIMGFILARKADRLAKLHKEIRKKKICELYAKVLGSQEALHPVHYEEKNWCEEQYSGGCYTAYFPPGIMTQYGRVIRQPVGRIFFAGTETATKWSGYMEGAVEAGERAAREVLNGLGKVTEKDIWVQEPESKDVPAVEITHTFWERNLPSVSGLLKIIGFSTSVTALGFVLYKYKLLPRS
The experiment can be described thus: MAO Inhibition Assay. The protocol:
(§1) The protocol for measuring IC50 values for the inhibition of MAO-A and MAO-B has been reported in detail in a recent publication (26). The recombinant human MAO enzymes were used, and kynuramine served as non-selective MAO substrate. The MAOs oxidize kynuramine to ultimately yield a fluorescent metabolite, 4-hydroxyquinoline, which was measured by fluorescence spectrophotometry (kex = 310; kem = 400 nm).

The target of the next experiment is T2, Amine oxidase (Homo sapiens, UniProt Q8TBI1).
T2 sequence (Q8TBI1 whole entry): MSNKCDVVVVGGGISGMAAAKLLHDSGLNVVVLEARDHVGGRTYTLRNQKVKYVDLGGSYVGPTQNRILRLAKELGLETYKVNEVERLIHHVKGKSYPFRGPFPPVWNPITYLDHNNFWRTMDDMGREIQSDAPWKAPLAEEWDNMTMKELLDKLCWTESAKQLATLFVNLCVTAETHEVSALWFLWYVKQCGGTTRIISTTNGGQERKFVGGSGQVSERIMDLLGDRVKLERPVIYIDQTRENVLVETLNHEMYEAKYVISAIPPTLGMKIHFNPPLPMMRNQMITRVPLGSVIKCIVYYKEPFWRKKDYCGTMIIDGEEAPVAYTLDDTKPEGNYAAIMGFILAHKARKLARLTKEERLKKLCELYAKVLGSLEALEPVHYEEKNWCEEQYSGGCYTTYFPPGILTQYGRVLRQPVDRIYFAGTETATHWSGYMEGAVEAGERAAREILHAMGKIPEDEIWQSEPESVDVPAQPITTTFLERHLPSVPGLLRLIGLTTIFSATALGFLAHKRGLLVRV
The experiment can be described thus: MAO Inhibition Assay. As to the method:
as §1

On to `COC1=CC(=O)c2ccccc2C1=O`, for which the half-maximal inhibitory concentration (IC50) is 20.4 µM in experiment [1] and 24.8 µM on Amine oxidase.

For the molecule `CC1=CC(=O)c2c(O)cccc2C1=O`, the IC50 in experiment [1] stood at 4.91 µM; on Amine oxidase, 1.09 µM.

Turning to `O=C1C=CC(=O)c2ccccc21` [1,4-dihydronaphthalene-1,4-dione], the IC50 in experiment [1] was determined as 3.43 µM; at Amine oxidase it was 8.4 µM.

For `O=C1C(Cl)=C(Cl)C(=O)c2ccccc21` [2,3-dichloro-1,4-dihydronaphthalene-1,4-dione], the IC50 in experiment [1] is 2 µM; on Amine oxidase, 2.61 µM.

Regarding `CC1=C(CCl)C(=O)c2ccccc2C1=O` [2-(chloromethyl)-3-methyl-1,4-dihydronaphthalene-1,4-dione (5f)], half-maximal inhibition at Amine oxidase (IC50) required 10.8 µM. In other words, the double-digit micromolar range.

`O=C1C(Cl)=C(OCCCCO)C(=O)c2ccccc21` [2-chloro-3-(4-hydroxybutoxy)-1,4-dihydronaphthalene-1,4-dione (5h)]: the IC50 is 5.06 µM in experiment [1] and 3.06 µM at Amine oxidase.

In turn, `O=C1C(O)=C(Cl)C(=O)c2ccccc21` [2-chloro-3-hydroxy-1,4-dihydronaphthalene-1,4-dione (5g)] had a 50% inhibitory concentration (IC50) against Amine oxidase of 3.45 µM. That is a single-digit micromolar value.

Molecule `O=C1C=CC(=O)c2c(O)ccc(O)c21` [5,8-dihydroxy-1,4-naphthoquinone] had a 50% inhibitory concentration (IC50) against Amine oxidase of 0.86 µM. This IC50 lies about 4-fold lower than the previous one.

Consider `CC(C)=CCC(O)C1=CC(=O)c2c(O)ccc(O)c2C1=O` (centres undefined) [5,8-dihydroxy-2-(1-hydroxy-4-methylpent-3-enyl)naphthalene-1,4-dione], for which the IC50 in experiment [1] was determined as 1.5 µM; on Amine oxidase, 1.01 µM.

Take `O=C1C=CC(=O)c2c(O)cccc21` [5-hydroxy-1,4-dihydronaphthalene-1,4-dione]: the IC50 in experiment [1] worked out at 1.71 µM; on Amine oxidase it was 4.36 µM.

`CC1=CC(=O)c2ccccc2C1=O` [Vitamin K3]: the IC50 in experiment [1] was 10.2 µM; at Amine oxidase, 3.02 µM.
